Consider ten compounds from patent US9273058B2 (BRISTOL-MYERS SQUIBB COMPANY, priority 2013, dated 2016).

Read-outs that look alike come from different tables or passages of the source.

For one assay, the target named is CK1δ (Homo sapiens, UniProt P48730). Kind of assay: CK1δ kinase assay (Caliper LabChip electrophoretic separation of fluoresceinated peptide substrate and product). The class given is biochemical. As to conditions: 200 pM CK1δ, 50 μM ATP, 1.5 μM peptide, 22 hours at room temperature. A digest of the protocol: (§1)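 Incubated for twenty-two hours at ambient temperature, then quenched with EDTA and analyzed by electrophoretic separation of unphosphorylated and phosphorylated peptide.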
CK1δ, sequence (P48730 whole entry): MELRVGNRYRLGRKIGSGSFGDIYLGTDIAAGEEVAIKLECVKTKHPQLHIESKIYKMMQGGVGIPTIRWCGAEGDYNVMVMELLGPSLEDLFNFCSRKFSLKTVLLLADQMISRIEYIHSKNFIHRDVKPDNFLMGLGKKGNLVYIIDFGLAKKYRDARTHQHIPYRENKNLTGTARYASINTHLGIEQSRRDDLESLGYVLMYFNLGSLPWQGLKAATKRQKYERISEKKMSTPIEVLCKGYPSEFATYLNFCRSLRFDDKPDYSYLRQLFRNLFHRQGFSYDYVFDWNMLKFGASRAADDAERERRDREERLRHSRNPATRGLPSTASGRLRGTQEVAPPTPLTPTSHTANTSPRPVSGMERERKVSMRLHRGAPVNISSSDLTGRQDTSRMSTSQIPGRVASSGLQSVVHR

For another assay, the target named is CK1ε (Homo sapiens, UniProt P49674). Kind of assay: CK1ε kinase assay (Caliper LabChip electrophoretic separation of fluoresceinated peptide substrate and product). The class given is biochemical. As to conditions: 200 pM CK1ε, 50 μM ATP, 1.5 μM peptide, 22 hours at room temperature. A digest of the protocol: as §1
CK1ε, sequence (P49674 whole entry): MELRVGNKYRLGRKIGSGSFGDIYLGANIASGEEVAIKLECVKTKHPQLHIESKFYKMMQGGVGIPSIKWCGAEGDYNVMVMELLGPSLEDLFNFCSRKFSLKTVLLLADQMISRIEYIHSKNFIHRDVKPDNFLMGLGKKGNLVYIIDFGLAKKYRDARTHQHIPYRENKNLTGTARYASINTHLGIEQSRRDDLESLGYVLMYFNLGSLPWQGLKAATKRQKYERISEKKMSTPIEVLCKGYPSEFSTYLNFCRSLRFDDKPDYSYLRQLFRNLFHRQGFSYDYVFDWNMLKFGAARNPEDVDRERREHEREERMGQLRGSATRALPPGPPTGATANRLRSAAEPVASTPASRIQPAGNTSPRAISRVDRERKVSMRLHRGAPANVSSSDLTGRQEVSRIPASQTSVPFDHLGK

As for `CC1CN(C(=O)NC(C)(C)C)Cc2c(C(N)=O)c(-c3ccc(Cl)c(Cl)c3)nn21` (stereo not shown) [Compound A34, N^5-(tert-Butyl)-2-(3,4-dichlorophenyl)-7-methyl-6,7-dihydropyrazolo[1,5-a]pyrazine-3,5(4H)-dicarboxamide], the IC50 on CK1δ (read-out: CK1δ IC50 range) and on CK1ε (read-out: CK1ε IC50 range) was 0.01 to 10 nM each time.
In the case of `NC(=O)c1c(-c2ccc(F)c(Cl)c2)nn2c1CN(C(=O)NC13CCC(F)(CC1)CC3)CC2` [Compound A54, 2-(3-Chloro-4-fluorophenyl)-N^5-(4-fluorobicyclo[2.2.2]octan-1-yl)-6,7-dihydropyrazolo[1,5-a]pyrazine-3,5(4H)-dicarboxamide], the IC50 on CK1δ (read-out: CK1δ IC50 range) and on CK1ε (read-out: CK1ε IC50 range) was 0.01 to 10 nM in each case.
As for `CC(C)(C)NC(=O)N1CCn2nc(-c3cccc(NS(C)(=O)=O)c3)c(C(N)=O)c2C1` [Compound 118, N^5-(tert-Butyl)-2-(3-(methylsulfonamido)phenyl)-6,7-dihydropyrazolol[1,5-a] pyrazine-3,5(4H)-dicarboxamide], the IC50 at CK1δ (read-out: CK1δ IC50 range) and at CK1ε (read-out: CK1ε IC50 range) was 100 to 2000 nM each time.
As for `CC1(NC(=O)N2CCn3nc(-c4ccc(Cl)c(Cl)c4)c(C(N)=O)c3C2)CC2(C1)CC2(F)F` (single isomer, unassigned) [Compound 329, 2-(3,4-Dichlorophenyl)-N^5-(1,1-difluoro-5-methylspiro[2.3]hexan-5-yl)-6,7-dihydropyrazolo[1,5-a]pyrazine-3,5(4H)-dicarboxamide], the IC50 at CK1δ (read-out: CK1δ IC50 range) and at CK1ε (read-out: CK1ε IC50 range) was 0.01 to 10 nM throughout.
As for `NC(=O)c1c(-c2ccc(F)c(Cl)c2)nn2c1CN(C(=O)NC13CCC(CC1)CC3)CC2` [Compound A58, N^5-(Bicyclo[2.2.2]octan-1-yl)-2-(3-chloro-4-fluorophenyl)-6,7-dihydropyrazolo[1,5-a]pyrazine-3,5(4H)-dicarboxamide], the IC50 at CK1δ (read-out: CK1δ IC50 range) and at CK1ε (read-out: CK1ε IC50 range) was 0.01 to 10 nM each time.
In the case of `NC(=O)c1c(-c2cccc(F)c2)nn2c1CN(C(=O)Nc1ccc(F)cc1F)CC2` [Compound 30, N^5-(2,4-Difluorophenyl)-2-(3-fluorophenyl)-6,7-dihydropyrazolo[1,5-a]pyrazine-3,5(4H)-dicarboxamide], the IC50 at CK1δ (read-out: CK1δ IC50 range) and at CK1ε (read-out: CK1ε IC50 range) was 10 to 100 nM throughout.
With `C[C@@]12C[C@H]3C[C@@](Cl)(C1)C[C@](NC(=O)N1CCn4nc(-c5ccc(Cl)c(Cl)c5)c(C(N)=O)c4C1)(C3)C2` [Compound A93, N^5-((1S,3R,5S,7R)-3-Chloro-5-methyladamantan-1-yl)-2-(3,4-dichlorophenyl)-6,7-dihydropyrazolo[1,5-a]pyrazine-3,5(4H)-dicarboxamide], the IC50 at CK1δ (read-out: CK1δ IC50 range) and at CK1ε (read-out: CK1ε IC50 range) was 0.01 to 10 nM throughout.
Take `N#Cc1ccc(NC(=O)N2CCn3nc(-c4cccc(Cl)c4)c(C(N)=O)c3C2)cc1` [Compound 166, 2-(3-Chlorophenyl)-N^5-(4-cyanophenyl)-6,7-dihydropyrazolo[1,5-a]pyrazine-3,5(4H)-dicarboxamide]: the IC50 on CK1δ (read-out: CK1δ) is 0.3 nM; on CK1δ (read-out: CK1δ IC50 range) it was 0.01 to 10 nM; on CK1ε (read-out: CK1ε), 0.3 nM; at CK1ε (read-out: CK1ε IC50 range), 0.01 to 10 nM.
In the case of `NC(=O)c1c(-c2ccc(F)c(Cl)c2)nn2c1CN(C(=O)NC1CC3(C1)CC3(F)F)CC2` (single isomer, unassigned) [Compound 320, 2-(3-Chloro-4-fluorophenyl)-N^5-(1,1-difluorospiro[2.3]hexan-5-yl)-6,7-dihydropyrazolo[1,5-a]pyrazine-3,5(4H)-dicarboxamide], the IC50 on CK1δ (read-out: CK1δ IC50 range) and on CK1ε (read-out: CK1ε IC50 range) was 0.01 to 10 nM in each case.
On to `CC(C)(C)NC(=O)N1Cc2c(C(N)=O)c(-c3ccc(F)c(Cl)c3)nn2C2(COC2)C1` [Compound A134, N^5′-(tert-Butyl)-2′-(3-chloro-4-fluorophenyl)-4′H-spiro[oxetane-3,7′-pyrazolo[1,5-a]pyrazine]-3′,5′(6′H)-dicarboxamide], for which the IC50 on CK1δ (read-out: CK1δ IC50 range) and on CK1ε (read-out: CK1ε IC50 range) was 0.01 to 10 nM each time.
